Assay results taken from patent US8614021B2, “Agents for enhanced charge transport across microbial membranes” (The United States of America as represented by the …, priority 2010, dated 2013).
Entries after “also recorded” stand apart in the source; their conditions may differ. Where two headings read alike, the source gives them in different places. Each block holds one compound with its values, some of them ahead of it.

Tests used:
[1] = Cyclic voltammetry, oxidation of the oligoelectrolytes (current/potential curves); assay type: physicochemical; details: vs. Ag/AgCl, 200 mV/s scan rate
yeast = assay: Yeast microbial fuel cell (U-tube MFC) voltage production; assay type: cell-based; details: for Maximum voltage (Vmax): across a 10 kΩ resistor
From the text: Two-chamber MFCs were constructed in a similar fashion as previously described (Milliken, C. E.; May, H. D. Appl. Microbiol. Biotechnol. 2007, 73, 1180-1189; Sund, C. J.; Wong, M. S.; Sumner, J. J. Biosens. Bioelectron. 2009, 24, 3144-3147; Sund, C. J.; McMasters, S.; Crittenden, S. R.; Harrell, L. E.; Sumner, J. J. Appl. Microbiol. Biotechnol. 2007, 76, 561-568) with some modifications and pictured in FIG. 9. The anodes and cathodes consisted of carbon felt (100% Activated Carbon Fiber Filter, CarboPur Technologies, Montreal, Canada), ⅛ inch thick, cut to the dimensions of 5 cm by 1 cm. The carbon felts were attached to 0.25 mm diameter titanium wires (AlfaAesar, Ward Hill, Mass.) as electrical leads. A new piece of Nafion® 117 (DuPont, Wilmington, Del., USA) was used for each fuel cell. Anode wires were passed through silicone rubber septa used to seal the anode compartment following inoculation while the cathode compartment was covered with a loose-fitting glass vial. Each fuel cell compartment was filled with 20 ml of media and autoclaved. Inoculation of MFCs consisted of addition of 300 μL of stained (25 μM COE) or unstained yeast stock solution (O.D.=1.75). Methylene blue was added separately as a stock solution (0.1% by weight, 2.67 mM) for the positive control runs employing this mediator. MFCs were incubated in an aerobic 30° C. incubator and the potential across a 10 kΩ resistor was measured and recorded every 10 seconds via a DAQPad-6016 and a custom LabView® VI (National Instruments, Austin, Tex., USA).
A U-tube type MFC (Milliken, C. E.; May, H. D. Appl. Microbiol. Biotechnol. 2007, 73, 1180-1189; Sund, C. J.; Wong, M. S.; Sumner, J. J. Biosens. Bioelectron. 2009, 24, 3144-3147; Sund, C. J.; McMasters, S.; Crittenden, S. R.; Harrell, L. E.; Sumner, J. J. Appl. Microbiol. Biotechnol. 2007, 76, 561-568) (FIG. 9) was employed to test and compare the performance of a series of yeast MFCs employing nM concentrations of DSSN+ and DSBN+ to the performance of a series of negative controls with no external mediator and a series of positive controls employing the common electron transport mediator methylene blue in μM concentrations. The details of MFC construction, preparation, and evaluation are discussed in detail in the section entitled “Microbial fuel cell preparation and assembly.” MFC performance was evaluated in terms of voltage instead of current. Voltage readings were obtained as a function of current across a 10 kΩ resistor.

[2] = UV-Vis absorption and photoluminescence (PL) spectroscopy in solvents of varying polarity; details: for η (quantum efficiency): relative to a fluorescein standard at pH 12
From the text: General photophysical and solvatochromatic features of the neutral (DSSN, DSBN) and charged (DSSN+, DSBN+) versions of each chromophore were probed by using UV-Vis absorption and photoluminescence (PL) spectroscopies.

Baker's yeast = assay: Yeast cell staining, confocal/epi-fluorescence imaging; assay type: cell-based; details: for accumulation within cell membranes (fluorescence images): 100 μM, 1 hour of shaking, excitation 488 nm
Protocol: Stock solutions of DSSN+ and DSBN+ (1-5 mM, typically 5 mL) were prepared in pH 7.3 phosphate buffer. […] Cultures were never allowed to exceed an optical density of 6. In a typical cell staining run a 1 mL sample was transferred to 1.5 mL Eppendorf tube and the growth media was removed by centrifugation of cells followed by decanting of the growth media. The cells were then re-suspended in phosphate buffer and an appropriate volume of oligoelectrolyte stock solution was added to achieve a 10-100 μM concentration of DSSN+ or DSBN+. The cells were then shaken lightly for 10-180 min at room temperature. The cells can then be imaged directly or following buffer exchange via centrifugation and cell re-suspension. In an alternate procedure, as is the same staining (membrane incorporation) procedure performed with MFC inoculation samples, the cells are simply stained (by addition of COE stock solutions prepared in growth media to culture samples) and imaged directly in the original growth media. […] Sample preparation is completed by depositing a ˜3-6 μL aliquot of stained cell solution onto a traditional slide followed by a cover slip (in this case the slide is inverted and placed over a water or oil immersion objective interfaced with either a Nikon or Leica confocal fluorescence microscope). […]
FIG. 8 consists of two sets of confocal microscopy fluorescence images of Baker's yeast, each stained and imaged in a 100 μM solution of DSSN+ (FIG. 8A) or DSBN+ (FIG. 8B) after 1 hour of shaking without exchanging the staining media.
The ability of DSBN+ and DSSN+ to be passed on to or exist within cell membranes of subsequent yeast generations born over the course of MFC operation was also investigated. […] Cells from each of these aliquots were imaged using a confocal microscope in epi-fluorescence mode and brightfield mode. […] FIG. 11B is an epi-fluorescence and brightfield image (inset, lower left) of a small group of yeast cells removed from the same MFC on the fourth day of operation.

[3] = UV-Vis absorbance and PL spectroscopy of oligoelectrolytes embedded in lipid bilayers (DMPC vesicles); details: for εmax / λabs / λem / η: lipid bilayer; for blue (hypsochromic) shift in λem / red (bathochromic) shift in λabs: lipid bilayer (DMPC vesicle membranes) compared to water / pH 7.3 HEPES buffer; for η: relative to a fluorescein standard at pH 12
Protocol: In order to prepare a typical membrane modified vesicle sample by sonication a methanolic DMPC solution containing a desired mol % DSBN+ was prepared (a typical solution is 1-5 mole % DSBN+ based on 50 micro-moles of DMPC). The methanol was slowly removed by argon flow while the solution was held at a constant 32-38° C. followed by vacuum oven drying at room temperature until dried to a constant weight. Next, enough H2O or pH 7 HEPES buffer was added to obtain a solution with a concentration of ˜1-20 mg/mL depending upon application (imaging or photoluminescence measurement for example). This solution was then sonicated at 40-50° C. for 0.5-7 hours, typically until the solution had lost most of its turbidity. This generates multi-lamellar vesicles. Uni-lamellar vesicles with diameters of ˜450 nm (with a somewhat broad size distribution based on cryo-TEM images) were formed as the resulting solution was filtered using 0.45 μm pore size syringe filters to yield a slightly turbid solution that must be further diluted to clarity with water or buffer in order to collect UV absorbance or photoluminescence spectra.
Efforts to modify the vesicle membranes with DSBN+ and DSSN+ followed modified literature procedures (Lin, A. J.; Slack, N. L.; Ahmad, A.; George, C. X.; Samuel, C. E.; Safinya, C. R. Biophys. J. 2003, 84, 3307-3316). First, a lipid stock solution containing the desired fraction of either DSSN+ or DSBN+, typically 1-5 mol % relative to lipid, was prepared in methanol. This lipid/COE stock solution was then heated and held above the transition temperature of the lipid (23° C. and 41° C. for DMPC and DPPC, respectively) as the solvent was removed via Argon flushing, followed by vacuum drying to a constant weight. The resulting lipid/COE solid was then suspended in pH=7.3 HEPES buffer to the desired concentration (1-10 mg/mL). Multi-lamellar vesicles were then formed by self-assembly upon sonication of the resulting solution. Uni-lamellar vesicles were prepared by filtration (using 0.45 or 0.2 μm pore size syringe filters) or by extrusion (Olson, F.; Hunt, C. A.; Szoka, F. C.; Vail, W. J.; Papahadjopoulos, D. Biochim. Biophys. Acta. 1979, 557, 9-23; Socaciu, C.; Bojarski, P.; Aberle, L.; Diehl, H. A. Biophys. Chem. 2002, 99, 1-15; Szoka, F.; Olson, F.; Heath, T.; Vail, W.; Mayhew, E.; Papahadjopoulos, D. Biochim. Biophys. Acta. 1980, 601, 559-571).

[4] = Cyclic voltammetry blocking experiment: transmembrane electron transport across sBLMs to aq. ferricyanide; details: for transmembrane electron transport across sBLM (current in CV): 2 mol % in DMPC and DPPC sBLMs, aq. ferricyanide, 200 mV/s scan rate
Protocol: Bilayer membranes supported on glassy carbon electrodes were prepared according to a modified literature procedure (Huang, W.; Zhang, Z.; Han, X.; Tang, J.; Wang, J.; Dong, S.; Wang, E. Biophys. J. 2002, 83, 3245-3255; Wu, Z.; Tang, J.; Cheng, Z.; Yang, X.; Wang, E. Anal. Chem. 2000, 72, 6030-6033). […] Electrode surface modification was performed by applying a constant 1.5 V bias for four minutes to a freshly polished glassy carbon electrode submerged in a 0.1 M aq. NaOH solution. Upon completion of this process the electrode was dried via argon steam followed by deposition of a 5 μL aliquot of the desired DMPC membrane forming solution to the electrode surface. The solvent was allowed to evaporate and electrode was immediately placed into phosphate buffer (pH 7.4) to allow the bilayer to assemble over a 0.5 hour time period. The working electrode containing the supported bilayer lipid membrane (sBLM) was then used directly.
Cyclic voltammograms were collected at scan rates of 50-200 mV/sec using a standard three-electrode setup that employed a Pt wire counter electrode, a Ag/AgCl reference electrode and a glassy carbon working electrode (modified or unmodified). All runs were performed in aq. 0.5 M KCl electrolyte solution containing 1 mM potassium ferricyanide (the active redox and indicator species). Oxygen was removed from the system via bubbling Ar through the solution for several minutes prior to data collection. The working electrode was freshly polished between each run prior to voltammogram collection or sBLM formation followed by voltammogram collection. Data was collected within the range of 0-0.4 V potentials relative to Ag/AgCl.
OPVs within a saturated alkane thiol monolayer can facilitate charge tunneling from a metallic electrode to a tethered redox species (Dudek, S. P.; Sikes, H. D.; Chidsey, C. E. D. J. Am. Chem. Soc. 2001, 123, 8033-8038; Sikes, H. D.; Smalley, J. F.; Dudek, S. P.; Cook, A. R.; Newton, M. D.; Chidsey, C. E. D.; Feldberg, S. W. Science. 2001, 291, 1519-1523). A variation of this approach was used in which supported bilayer membranes (sBLM) containing DSSN+, DSBN+ and other control molecules were prepared on the surface of a glassy carbon electrode surface. The sBLM-modified electrodes were then employed in a series of ‘blocking’ experiments in which cyclic voltammetry was used to monitor the reversible […] of aqueous ferricyanide. The unmodified sBLM acts as an insulating layer between the working electrode and the solution containing ferricyanide thereby greatly suppressing the redox current (Wiegand, G.; Arribas-Layton, N.; Hillebrandt, H.; Sackmann, E.; Wagner, P. J. Phys. Chem. B. 2002, 106, 4245-4254; Żebrowska, A.; Krysiński, P.; ? otowski, Z. Bioelectrochemistry. 2002, 56, 179-184). […]

[5] = DMSO; value abstracted from reference (Woo et al. JACS 2005); cited from earlier work

SMILES: C[N+](C)(C)CCCCCCN(CCCCCC[N+](C)(C)C)c1ccc(C=Cc2ccc(C=Cc3ccc(N(CCCCCC[N+](C)(C)C)CCCCCC[N+](C)(C)C)cc3)cc2)cc1.[I-].[I-].[I-].[I-] [DSBN+, 1,4-bis(4′-(N,N-bis(6″-(N,N,N-trimethylammonium)hexyl)amino)-styryl)benzene tetraiodide]
oxidation potential (Eox) [1]: ~0.55 V | Maximum voltage (Vmax) (yeast; 190 nM): ~55 mV | εmax (molar extinction coefficient at λmax) ([2]; DMSO): 8.2 Lmol^−1cm^−1 × 10^−4 | λabs ([2]; DMSO): 419 nm | λem ([2]; DMSO): 511 nm | η (quantum efficiency) ([2]; DMSO): 0.86 | εmax (molar extinction coefficient at λmax) ([2]; water): 6.0 Lmol^−1cm^−1 × 10^−4 | λabs ([2]; water): 406 nm | λem ([2]; water): 566 nm | η (quantum efficiency) ([2]; water): 0.33 | accumulation within cell membranes (fluorescence images) (Baker's yeast): apparent preferential accumulation of the COEs within cell membranes | εmax [3]: 4.8 Lmol^−1cm^−1 × 10^−4 | λabs [3]: 422 nm | λem [3]: 474 nm | blue (hypsochromic) shift in λem [3]: 92 nm | red (bathochromic) shift in λabs [3]: 16 nm | η [3]: 0.59 | transmembrane electron transport across sBLM (current in CV) [4]: facilitate transmembrane electron transport; also recorded: display higher currents with respect to the control experiments

SMILES: ICCCCCCN(CCCCCCI)c1ccc(C=Cc2ccc(C=Cc3ccc(N(CCCCCCI)CCCCCCI)cc3)cc2)cc1 [DSBN, 1,4-bis(4′-(N,N-bis(6″-iodohexyl)amino)styryl)benzene]
λabs ([2]; DMSO): 419 nm | λem ([2]; DMSO): 516 nm | η (quantum efficiency) ([2]; DMSO): 0.81 | εmax (molar extinction coefficient at λmax) ([2]; THF): 8.5 Lmol^−1cm^−1 × 10^−4 | λabs ([2]; THF): 410 nm | λem ([2]; THF): 466 nm | η (quantum efficiency) ([2]; THF): 0.92 | εmax (molar extinction coefficient at λmax) ([2]; toluene): 8.4 Lmol^−1cm^−1 × 10^−4 | λabs ([2]; toluene): 410 nm | λem ([2]; toluene): 454 nm | η (quantum efficiency) ([2]; toluene): 0.98 | εmax (molar extinction coefficient at λmax) [5]: 7.8 Lmol^−1cm^−1 × 10^−4

SMILES: C[N+](C)(C)CCCCCCN(CCCCCC[N+](C)(C)C)c1ccc(/C=C/c2ccc(/C=C/c3ccc(/C=C/c4ccc(N(CCCCCC[N+](C)(C)C)CCCCCC[N+](C)(C)C)cc4)cc3)cc2)cc1 [DSSN+, 4,4′-bis(4′-(N,N-bis(6″-(N,N,N-trimethylammonium)hexyl)amino)-styryl)stilbene tetraiodide]
oxidation potential (Eox) [1]: ~0.55 V | increase in voltage production compared to methylene blue (yeast; 190 nM vs 13 μM methylene blue): ~5 fold | Maximum voltage (Vmax) (yeast; 190 nM): ~200 mV | εmax (molar extinction coefficient at λmax) ([2]; DMSO): 9.8 Lmol^−1cm^−1 × 10^−4 | λabs ([2]; DMSO): 435 nm | λem ([2]; DMSO): 596 nm | η (quantum efficiency) ([2]; DMSO): 0.71 | εmax (molar extinction coefficient at λmax) ([2]; water): 6.6 Lmol^−1cm^−1 × 10^−4 | λabs ([2]; water): 412 nm | λem ([2]; water): 594 nm | η (quantum efficiency) ([2]; water): 0.06 | accumulation within cell membranes (fluorescence images) (Baker's yeast): apparent preferential accumulation of the COEs within cell membranes | presence of mediator in later cell generations (Baker's yeast; yeast stained with 25 μM, removed from MFC on day 4 of operation): demonstrate the presence of this mediator in later cell generations | εmax [3]: 8.4 Lmol^−1cm^−1 × 10^−4 | λabs [3]: 433 nm | λem [3]: 532 nm | blue (hypsochromic) shift in λem [3]: 62 nm | red (bathochromic) shift in λabs [3]: 21 nm | η [3]: 0.85 | transmembrane electron transport across sBLM (current in CV) [4]: facilitate transmembrane electron transport; also recorded: display higher currents with respect to the control experiments | current response of sBLMs containing DSSN+ instead of DSBN+ ([4]; 2 mol % in sBLMs): greater current response

εmax (molar extinction coefficient at λmax) ([2]; DMSO): 9.6 Lmol^−1cm^−1 × 10^−4 | λabs ([2]; DMSO): 436 nm | λem ([2]; DMSO): 602 nm | η (quantum efficiency) ([2]; DMSO): 0.73 | εmax (molar extinction coefficient at λmax) ([2]; THF): 10.6 Lmol^−1cm^−1 × 10^−4 | λabs ([2]; THF): 426 nm | λem ([2]; THF): 526 nm | η (quantum efficiency) ([2]; THF): 0.89 | εmax (molar extinction coefficient at λmax) ([2]; toluene): 10.7 Lmol^−1cm^−1 × 10^−4 | λabs ([2]; toluene): 425 nm | λem ([2]; toluene): 476 nm | η (quantum efficiency) ([2]; toluene): 0.95
SMILES: ICCCCCCN(CCCCCCI)c1ccc(C=Cc2ccc(C=Cc3ccc(C=Cc4ccc(N(CCCCCCI)CCCCCCI)cc4)cc3)cc2)cc1 [DSSN, 4,4′-bis(4′-(N,N-bis(6″-iodohexyl)amino)styryl)stilbene]

SMILES: CCCCCCCCCCCCN(CCCCCCCCCCCC)CCCCCCCCCCCC [TDA, tridodecylamine, reference compound]
transmembrane electron transport across sBLM (current in CV) [4]: Little to no transmembrane electron transfer occurs; also recorded: featureless

SMILES: CN(C)c1ccc2nc3ccc(=[N+](C)C)cc-3sc2c1 [methylene blue, reference compound]
Maximum voltage (Vmax) (yeast; 13 μM): ~40 mV
